From US20110306541A1, “METHODS FOR TREATING HCV” (priority 2010, published 2011)

Experiments:
[1] = Drug-drug interaction on co-administration; format: in vivo
[2] = Exposure (AUC) corresponding to dose; format: in vivo, human; details: for AUC: human, in vivo
[3] = system: HCV 1b replicon; experiment: Renilla luciferase (RLuc)-based HCV replicon reporter assay - HCV 1b RLuc; format: cell-based; details: Hepatitis C virus; Table I; HCV 1b RLuc replicon
[4] = Bilirubin elevations related to dose of Compound 3; format: in vivo, human; details: doses above 400 mg

SMILES: Fc1ccccc1-c1nc2ccn(Cc3ccc(-c4ccc(C(F)(F)F)cc4C(F)(F)F)nn3)cc-2n1 [Compound 1, 5-((6-(2,4-bis(trifluoromethyl)phenyl)pyridazin-3-yl)methyl)-2-(2-fluorophenyl)-5H-imidazo[4,5-c]pyridine]
- increase of the exposure of Compound 1 ([1]; co-administered with Compound 2): 2-3 ×
- effect on drug metabolizing systems ([1]; in vivo): it does not appear that Compound 1 affects drug metabolizing systems

SMILES: COC(=O)NC(C(=O)N1CC2(CC2)CC1c1ncc(-c2ccc3c(c2)C(F)(F)c2cc(-c4ccc5nc(C6C7CCC(C7)N6C(=O)C(NC(=O)OC)C(C)C)[nH]c5c4)ccc2-3)[nH]1)C(C)C (stereo not drawn) [Compound 16, (1-{3-[6-(9,9-Difluoro-7-{2-[5-(2-methoxycarbonylamino-3-methyl-butyryl)-5-aza-spiro[2.4]hept-6-yl]-3H-imidazol-4-yl}-9H-fluoren-2-yl)-1H-benzoimidazol-2-yl]-2-aza-bicyclo[2.2.1]heptane-2-carbonyl}-2-methyl-propyl)-carbamic acid methyl ester]
- exposure ([2]; 3 mg dose): 32.3 ng·h/mL
- exposure ([2]; 30 mg dose): 1415.2 ng·h/mL
- exposure ([2]; 90 mg dose): 4137.9 ng·h/mL
- exposure ([2]; 100 mg dose): 11166.6 ng·h/mL
- exposure ([2]; 300 mg dose): 38900 ng·h/mL

SMILES: COC(=O)N[C@H](C(=O)N1CCC[C@H]1c1nc(C#Cc2ccc3cc(-c4cnc([C@@H]5CC(F)(F)CN5C(=O)[C@@H](NC(=O)OC)C(C)C)[nH]4)ccc3c2)c[nH]1)C(C)C
- EC50 [3]: 14.7 pM

SMILES: COC(=O)N[C@H](C(=O)N1CCC[C@H]1c1ncc(C#CC2=CC3SC(c4cnc([C@@H]5CCCN5C(=O)[C@@H](NC(=O)OC)C(C)C)[nH]4)=CC3S2)[nH]1)C(C)C (stereo partly drawn)
- EC50 [3]: 50.3 pM

SMILES: CC[C@@H]1C[C@]1(NC(=O)[C@@H]1C[C@@H](Oc2cc(-c3csc(NC(C)C)n3)nc3c(Cl)c(OCCN4CCOCC4)ccc23)CN1C(=O)[C@@H](NC(=O)O[C@@H]1C[C@@H]2C[C@@H]2C1)C(C)(C)C)C(=O)O [Compound 3]
- AUC ([2]; 10 mg dose): 272 ng·h/mL
- AUC ([2]; 1000 mg dose): 48400 ng·h/mL
- bilirubin elevations [4]: more bilirubin elevations in some cases

SMILES: COC(=O)N[C@H](C(=O)N1CCC[C@H]1c1ncc(-c2ccc3cc4cc(-c5cnc([C@@H]6CCCN6C(=O)[C@@H](NC(=O)OC)C(C)C)[nH]5)ccc4cc3c2)[nH]1)C(C)C
- EC50 [3]: 7 pM

SMILES: COC(=O)N[C@H](C(=O)N1CCC[C@H]1c1ncc(-c2ccc3cc(-c4ccc(-c5cnc([C@@H]6CCCN6C(=O)[C@H](NC(=O)OC)c6ccccc6)[nH]5)cc4)ccc3c2)[nH]1)C(C)C
- EC50 [3]: 8.1 pM

SMILES: COC(=O)N[C@H](C(=O)N1CCC[C@H]1c1ncc(-c2cc3cc4sc(-c5cnc([C@@H]6CCCN6C(=O)[C@@H](NC(=O)OC)C(C)C)[nH]5)cc4cc3s2)[nH]1)C(C)C
- EC50 [3]: 7.7 pM
